Reference: ChEMBL document CHEMBL1201862, “PubChem BioAssay data set” (2004)
Activity calls are given as the source filed them.

Tests used:
[1] = target: T1, Sentrin-specific protease 8 (Homo sapiens, UniProt Q96LD8); assay type: functional
T1 sequence (Q96LD8 whole entry): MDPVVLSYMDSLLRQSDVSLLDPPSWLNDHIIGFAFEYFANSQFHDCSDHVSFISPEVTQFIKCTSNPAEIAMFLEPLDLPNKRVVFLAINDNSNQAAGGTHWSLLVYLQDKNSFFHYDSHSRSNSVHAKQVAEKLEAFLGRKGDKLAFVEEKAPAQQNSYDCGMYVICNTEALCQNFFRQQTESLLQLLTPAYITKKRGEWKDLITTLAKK

[2] = target: Genome polyprotein (dengue virus type 2, UniProt P29990); assay: Dengue-2 NS5 methyltransferase inhibitors, primary screen, biochemical, confirmation dose response (AID 588689); assay type: functional
[3] = test system: HeLa; assay: Cytotoxicity counterscreen assay for transcriptional activators of heat shock protein 70 (Hsp70). [Related pubchem assays: 1203, 1252 ]; assay type: functional; settings: Homo sapiens;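 note: cells exposed to compound for 16 hours before readout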
[4] = growth suppression of PTEN-null colon cells, dose response, cell-based, HCT116 PTEN knockout (AID 1047); assay type: functional;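 note: HCT116 colon tumor cells with PTEN knocked out; cells exposed to compound for 60 hours before readout; potency for loss of cell viability measured by luminescence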
[5] = growth suppression of beta-catenin-knockout colon cells, dose response, cell-based, HCT116, human colon tumor (AID 1045); assay type: functional;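 note: HCT116 colon tumor cells with beta catenin knocked out; cells exposed to compound for 60 hours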
[6] = cytotoxicity in HEK-293T cells, dose response, cytotoxicity control for TCR NF-kB inhibitor project, luminescence, T-cell screen hits (AID 489026); assay type: functional, cell-based;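 note: cells exposed to compound about 14 hours before the viability readout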
[7] = target: Kappa-type opioid receptor (Homo sapiens, UniProt P41145); assay type: functional
[8] = target: Sphingosine 1-phosphate receptor 2 (Homo sapiens, UniProt O95136); assay: Dose Response Cell Based Assay for Antagonists of the S1P2 Receptor. [Related pubchem assays: 856, 736 ]; assay type: functional
[9] = target: Serine/threonine-protein phosphatase PP1-alpha catalytic subunit (Homo sapiens, UniProt P62136); assay: PP1 phosphatase inhibitors, dose response, biochemical, fluorescence (AID 2394)
[10] = target: T2, Mitochondrial peptide methionine sulfoxide reductase (Bos taurus, UniProt P54149); assay type: functional;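 note: absorbance read-out, biochemical high-throughput dose-response screen for MsrA inhibitors, confirmatory; recombinant bovine MsrA coupled to E. coli TrxB with NADPH and selenocystamine; potency is for inhibitors of MsrA activity on DMSO substrate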
T2 sequence (P54149 whole entry): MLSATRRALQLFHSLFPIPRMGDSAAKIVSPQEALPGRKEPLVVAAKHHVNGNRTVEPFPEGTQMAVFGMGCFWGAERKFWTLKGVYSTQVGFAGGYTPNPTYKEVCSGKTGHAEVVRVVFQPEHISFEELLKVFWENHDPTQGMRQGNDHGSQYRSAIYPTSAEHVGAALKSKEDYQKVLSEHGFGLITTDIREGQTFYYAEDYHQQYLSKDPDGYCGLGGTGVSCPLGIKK

[11] = target: Serine/threonine-protein phosphatase (Homo sapiens, UniProt Q9BPW0); assay: PP5 phosphatase inhibitors, dose response, biochemical, fluorescence (AID 2395)
Chain of Serine/threonine-protein phosphatase (Q9BPW0 whole entry): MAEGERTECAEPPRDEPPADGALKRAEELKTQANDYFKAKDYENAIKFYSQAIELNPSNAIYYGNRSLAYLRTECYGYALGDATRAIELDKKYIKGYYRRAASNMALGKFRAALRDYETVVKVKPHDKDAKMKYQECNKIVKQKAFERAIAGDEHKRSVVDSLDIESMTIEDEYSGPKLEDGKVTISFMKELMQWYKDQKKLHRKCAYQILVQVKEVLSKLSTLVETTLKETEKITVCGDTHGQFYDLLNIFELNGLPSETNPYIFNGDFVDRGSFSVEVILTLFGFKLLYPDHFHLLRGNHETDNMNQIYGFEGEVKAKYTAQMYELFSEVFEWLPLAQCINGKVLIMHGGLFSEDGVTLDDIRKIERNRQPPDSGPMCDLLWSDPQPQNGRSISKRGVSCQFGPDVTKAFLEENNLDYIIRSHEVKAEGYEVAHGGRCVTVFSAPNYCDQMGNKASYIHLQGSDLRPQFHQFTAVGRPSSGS

Chain of Kappa-type opioid receptor (P41145 whole entry): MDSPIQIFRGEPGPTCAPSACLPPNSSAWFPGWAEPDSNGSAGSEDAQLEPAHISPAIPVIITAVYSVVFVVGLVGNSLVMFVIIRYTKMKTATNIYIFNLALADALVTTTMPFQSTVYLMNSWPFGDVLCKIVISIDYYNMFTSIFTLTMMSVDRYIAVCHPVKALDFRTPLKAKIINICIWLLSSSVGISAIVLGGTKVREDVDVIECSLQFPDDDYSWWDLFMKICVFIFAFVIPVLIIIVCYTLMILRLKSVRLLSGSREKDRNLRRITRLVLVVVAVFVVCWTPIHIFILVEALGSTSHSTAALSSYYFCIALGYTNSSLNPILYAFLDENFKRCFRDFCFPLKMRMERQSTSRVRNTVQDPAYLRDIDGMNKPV
Chain of Serine/threonine-protein phosphatase PP1-alpha catalytic subunit (P62136 whole entry): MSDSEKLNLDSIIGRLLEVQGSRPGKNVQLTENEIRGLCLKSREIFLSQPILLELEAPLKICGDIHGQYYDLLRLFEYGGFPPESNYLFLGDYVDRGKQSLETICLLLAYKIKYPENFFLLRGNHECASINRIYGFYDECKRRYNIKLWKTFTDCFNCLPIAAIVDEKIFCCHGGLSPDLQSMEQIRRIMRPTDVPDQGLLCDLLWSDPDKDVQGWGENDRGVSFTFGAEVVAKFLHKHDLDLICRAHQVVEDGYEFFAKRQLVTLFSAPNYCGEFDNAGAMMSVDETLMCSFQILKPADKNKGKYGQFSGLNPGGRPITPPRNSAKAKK
Chain of Sphingosine 1-phosphate receptor 2 (O95136 whole entry): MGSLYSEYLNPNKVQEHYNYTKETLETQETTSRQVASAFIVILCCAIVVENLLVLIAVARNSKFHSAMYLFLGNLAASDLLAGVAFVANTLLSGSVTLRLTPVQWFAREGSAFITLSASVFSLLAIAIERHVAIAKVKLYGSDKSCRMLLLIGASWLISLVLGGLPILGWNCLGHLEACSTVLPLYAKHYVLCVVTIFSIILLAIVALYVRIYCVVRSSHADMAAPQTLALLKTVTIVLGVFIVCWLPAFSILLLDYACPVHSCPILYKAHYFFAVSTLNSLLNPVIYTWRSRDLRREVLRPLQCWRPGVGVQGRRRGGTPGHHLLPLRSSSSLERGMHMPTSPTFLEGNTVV
Chain of Genome polyprotein (P29990 2492-3391 limits assumed): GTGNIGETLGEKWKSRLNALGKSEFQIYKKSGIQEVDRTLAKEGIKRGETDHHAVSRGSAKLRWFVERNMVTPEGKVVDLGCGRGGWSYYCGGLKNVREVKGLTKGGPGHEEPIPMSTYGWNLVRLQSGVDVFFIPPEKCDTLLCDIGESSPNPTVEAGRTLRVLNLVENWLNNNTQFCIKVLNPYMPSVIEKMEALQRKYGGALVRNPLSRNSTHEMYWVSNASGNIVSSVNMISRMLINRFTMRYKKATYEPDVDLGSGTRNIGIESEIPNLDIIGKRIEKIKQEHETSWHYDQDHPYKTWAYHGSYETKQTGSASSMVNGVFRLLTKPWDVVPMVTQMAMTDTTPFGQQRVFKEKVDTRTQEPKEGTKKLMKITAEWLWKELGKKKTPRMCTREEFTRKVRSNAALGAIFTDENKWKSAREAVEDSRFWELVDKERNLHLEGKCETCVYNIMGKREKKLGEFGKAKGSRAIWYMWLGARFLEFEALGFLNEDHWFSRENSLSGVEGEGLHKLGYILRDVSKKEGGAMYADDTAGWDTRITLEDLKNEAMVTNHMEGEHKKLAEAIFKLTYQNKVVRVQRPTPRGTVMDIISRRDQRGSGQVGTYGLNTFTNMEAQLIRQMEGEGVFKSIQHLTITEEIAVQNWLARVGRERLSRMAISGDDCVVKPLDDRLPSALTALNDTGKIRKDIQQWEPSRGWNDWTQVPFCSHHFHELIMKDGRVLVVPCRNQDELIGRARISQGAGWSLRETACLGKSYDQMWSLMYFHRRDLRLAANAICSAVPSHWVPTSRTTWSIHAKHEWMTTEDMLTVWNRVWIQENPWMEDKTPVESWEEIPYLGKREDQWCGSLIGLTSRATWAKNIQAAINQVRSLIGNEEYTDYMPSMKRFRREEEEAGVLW

SMILES: Nc1ccc(N2CCCCC2)c2nonc12
- IC50 [1]: 1.06 µM (active)
- IC50 [2]: 40.6 µM (active)

SMILES: COc1ccc(NC(=O)/C(Cl)=C(/Cl)[S+]([O-])Cc2ccccc2)cn1 (stereo unspecified)
- CC50 [3]: 1.75 µM (active)
- EC50 [4]: 0.197 µM (active)
- EC50 [5]: 0.185 µM (active)
- IC50 [6]: 33 µM (inactive)
- IC50 [7]: 7.62 µM
- IC50 [8]: 0.942 µM (active)

SMILES: Cc1ccc(S(=O)(=O)/N=C2\C=C(Nc3cccc(C(=O)O)c3)C(=O)c3ccccc32)c(C)c1
- IC50 [9]: 27.1 µM (not active)
- IC50 [10]: 74.5 µM (inactive)
- IC50 [11]: 12.3 µM (not active)
